{"source": "paper PMC11945201", "about": "“Enhancing the Oral Bioavailability of Glutathione Using Innovative Analogue Approaches” (Pharmaceutics, 2025)", "key": {"[1]": {"tested_on": "glutathione reductase (GR) and glutathione peroxidase (GPx)", "assay": "Glutathione reductase and glutathione peroxidase coupled assay (NADPH, 340 nm)", "assay_type": "biochemical, yeast (GR), bovine (GPx)", "conditions": "for GT/GPx Activity > 50%: yes/no, more than 50% considered retaining GR and GPx activity", "procedure": "The activity of GR can be measured by monitoring the rate of decrease in absorbance of its substrate, NADPH, which absorbs light of 340 nm in the presence of a second substrate, i.e., oxidised GSH. […] In the presence of peroxides, reduced GSH can be oxidised by the enzyme GPx while reducing the peroxide. […] The NADPH solution (10 μL, 5 mmolL^−1), GPx enzyme solution (10 μL, 0.25 UmL^−1), and GR enzyme solution (10 μL, 10 UmL^−1) were also added to the reaction mixture. The reaction was initiated by the addition of tBu-OOH (2 μL, 30 mmolL^−1), and the decrease in absorbance at 340 nm was recorded by a microplate reader every 10 secs for one minute. […] A GR and GPx activity more than 50% was considered as retaining GR and GPx activity."}, "[2]": {"tested_on": "Caco-2, Fibroblast, and HT29-MTX-E12 cells", "assay": "Cytotoxicity by MTT cell viability", "assay_type": "cell-based", "conditions": "for IC50: Homo sapiens, 24 h incubation, cell line not split in table (Caco-2, Fibroblast, HT29-MTX-E12), highest usable concentration 3.25 mmolL^−1", "procedure": "All cell culture studies were conducted in aseptic conditions. Incubation was maintained at an atmosphere of 37.0 °C, 5% CO2, and 95% relative humidity. The caco-2 cells were grown in complete Dulbecco’s modified Eagle’s medium (DMEM), which was prepared by adding 10% foetal bovine serum (FBS), 1% penicillin-streptomycin (P-S), and 1% non-essential amino acids (NEAA) to sterile DMEM. Cells were cultured in T-25 and T-75 tissue culture flasks, and the medium was exchanged every 3 days until 90% confluence was reached. Cells were detached and subcultured with 0.25% Trypsin-EDTA. The suspended cell concentration was determined by cell counting.\nCytotoxicity was measured by measuring cell viability using MTT. Then, 90% confluent cells were detached by 0.25% trypsin-EDTA, which were then counted and seeded into sterile 96-well plates. Caco-2 cells were seeded into 96-well plates at a density of 100,000 cells per well and incubated for 24 h prior to the experiment. Fibroblast cells were seeded into 96-well plates at a density of 10,000 cells per well and incubated for 24 h prior to the experiment. HT-29 cells were seeded into 96-well plates at a density of 10,000 cells per well and incubated for 24 h prior to the experiment. The supernatant in each well were discarded and the attached cells were washed using serum-free Fluorobite^TM DMEM twice to remove any phenol red. The peptide, at concentrations of 10 mgmL^−1, 1 mgmL^−1, 0.1 mgmL^−1, 0.01 mgmL^−1, 0.001 mgmL^−1, and 0.0001 mgmL^−1 were dissolved in serum-free Fluorobite^TM DMEM. The total volume of sample in each well used was 100 μL. The cells were incubated with the peptide for 24 h. Cells were also incubated with serum-free DMEM (positive control) and 2% Triton-X (negative control) for 24 h. The supernatant in each well was then discarded and washed using serum-free Fluorobite^TM DMEM. MTT (100 μL, 1.2 mmolL^−1) dissolved in Fluorobite^TM DMEM was then added to each well and incubated for 2 h for MTT conversion into formazan. The supernatant was then discarded, and the cells were washed using Fluorobite^TM DMEM to remove any residual MTT and formazan that were not attached to cellular mitochondria. Formazan was dissolved in dimethyl sulfoxide (DMSO) (50 μL), and the absorbance was measured on a microplate reader at a wavelength of 570 nm. Cell viability was expressed as a percentage of the positive control and calculated as follows (where Aexp is the absorbance at 570 nm of the experimental group, Aneg is the absorbance at 570 nm of the negative control, and Acon is the cell viability of the positive control): Cell viability = (Aexp − Aneg)/(Acon − Aneg)."}, "Fibroblast cells": {"tested_on": "Fibroblast cells", "assay": "UV rescue of UVA-irradiated fibroblast cells (MTT)", "assay_type": "cell-based", "conditions": "for % Cell Viability (with UV): UVA 1 h, then peptide 0.0325 mmolL^−1, 24 h", "procedure": "Fibroblast cells were seeded into 96-well plates at a density of 10,000 cells per well determined by cell counting. Cells were allowed to settle and attach for 24 h before the addition of peptides. The supernatant in each well was discarded, and the attached cells were washed using serum-free DMEM twice. One group of cells was exposed to UVA under a UV lamp for 1 h. A second group of cells was not exposed to UV irradiation. The supernatant was removed from each well of both groups and replaced with peptide (100 μL, 0.0325 mmolL^−1), which was then dissolved in Fluorobite^TM DMEM. Each plate, including 2 wells of both groups was also incubated with serum-free DMEM (positive control) and 2% Triton-X (negative control) for 24 h. The supernatant in each well of both groups was then discarded and the cells washed using PBS. MTT (100 μL, 6 mmolL^−1) that was dissolved in HBSS was then added to each well and incubated for 2 h for MTT conversion into formazan. The supernatant was then discarded, and the cells were washed using PBS to remove any residual MTT and formazan that were not attached to the cellular mitochondria. Formazan was dissolved in DMSO (50 μL), and the absorbance was measured on a microplate reader at a wavelength of 570 nm."}}}
{"compound": "CN(C(=O)CC[C@H](N)C(=O)O)[C@@H](CS)C(=O)NCC(=O)O", "note": "[Compound 1.70]", "values": [{"measurement": "activity with GPx and GR enzymes (in words)", "setting": "[1]; qualitative analysis", "value": "retention of activity"}, {"measurement": "GT/GPx Activity > 50%", "setting": "[1]", "value": "✔ (✔: yes)"}, {"measurement": "IC50", "setting": "[2]", "value": "> 3.25", "unit": "mM"}, {"measurement": "cytotoxicity (in words)", "setting": "[2]; up to 3.25 mmolL^−1", "value": "no cytotoxicity detected"}, {"measurement": "cell viability versus untreated groups (in words)", "setting": "Fibroblast cells; UV rescue", "value": "significantly higher cell viability than the untreated groups"}, {"measurement": "% Cell Viability (with UV)", "setting": "Fibroblast cells; mean ± SD, n = 6", "value": "112.4 ± 9.7", "unit": "%"}]}
{"compound": "N[C@@H](CCC(=O)N[C@@H](CS)C(=O)NCC(=O)O)C(=O)O", "note": "[GSH, Glutathione]", "values": [{"measurement": "GT/GPx Activity > 50%", "setting": "[1]", "value": "✔ (✔: yes)"}, {"measurement": "IC50", "setting": "[2]", "value": "> 3.25", "unit": "mM"}, {"measurement": "% Cell Viability (with UV)", "setting": "Fibroblast cells; mean ± SD, n = 6", "value": "87.7 ± 4.5", "unit": "%"}, {"measurement": "% Cell Viability (no UV)", "setting": "Fibroblast cells; peptide 0.0325 mmolL^−1, 24 h, no UV, mean ± SD, n = 6", "value": "100.0 ± 8.1", "unit": "%"}]}
